Test results as given in the NIST ThermoML archive (doi:10.1021/acs.jced.8b00554).

Experiment: xn = mol fraction of the nth substance listed
Conditions: Liquid, Vibrating tube method

CCCCCCCCCC [decane] + CCCO
mass density [kg/m3]
Conditions	343.15 K	353.15 K
100 kPa, x2 = 0.1391	687.56	676.32
100 kPa, x2 = 0.1907	688.32	676.49
100 kPa, x2 = 0.3001	690.77	678.11
100 kPa, x2 = 0.4326	694.55	680.77
100 kPa, x2 = 0.6863	710.6	696.41
100 kPa, x2 = 0.8711	732.51	719.28
1000 kPa, x2 = 0.1391	–	678.16
1000 kPa, x2 = 0.1907	–	678.39
1000 kPa, x2 = 0.8711	–	721.12
1010 kPa, x2 = 0.1391	689.22	–
1010 kPa, x2 = 0.1907	690.02	–
1010 kPa, x2 = 0.3001	692.37	679.67
1010 kPa, x2 = 0.4326	696.46	–
1010 kPa, x2 = 0.6863	712.46	698.52
1010 kPa, x2 = 0.8711	734.14	–
1020 kPa, x2 = 0.4326	–	682.95
2000 kPa, x2 = 0.6863	713.55	–
2010 kPa, x2 = 0.1391	–	679.31
2010 kPa, x2 = 0.1907	691.1	–
2010 kPa, x2 = 0.3001	693.48	680.84
2010 kPa, x2 = 0.6863	–	699.68
2010 kPa, x2 = 0.8711	–	722.21
2020 kPa, x2 = 0.1391	690.3	–
2020 kPa, x2 = 0.1907	–	679.54
2020 kPa, x2 = 0.4326	697.54	684.1
2020 kPa, x2 = 0.8711	735.16	–
3000 kPa, x2 = 0.1907	–	680.66
3000 kPa, x2 = 0.3001	–	681.96
3010 kPa, x2 = 0.1391	691.36	–
3010 kPa, x2 = 0.1907	692.15	–
3010 kPa, x2 = 0.3001	694.52	–
3010 kPa, x2 = 0.6863	–	700.85
3010 kPa, x2 = 0.8711	736.2	–
3020 kPa, x2 = 0.1391	–	680.43
3020 kPa, x2 = 0.4326	698.61	685.26
3020 kPa, x2 = 0.6863	714.64	–
3020 kPa, x2 = 0.8711	–	723.32
4000 kPa, x2 = 0.1391	692.41	–
4000 kPa, x2 = 0.4326	–	686.44
4000 kPa, x2 = 0.6863	715.75	–
4000 kPa, x2 = 0.8711	737.27	–
4010 kPa, x2 = 0.1391	–	681.55
4010 kPa, x2 = 0.1907	–	681.83
4010 kPa, x2 = 0.3001	–	683.13
4010 kPa, x2 = 0.6863	–	702.05
4020 kPa, x2 = 0.1907	693.23	–
4020 kPa, x2 = 0.3001	695.6	–
4020 kPa, x2 = 0.4326	699.72	–
4020 kPa, x2 = 0.8711	–	724.45
5000 kPa, x2 = 0.4326	700.81	–
5000 kPa, x2 = 0.8711	–	725.63
5010 kPa, x2 = 0.1391	–	682.67
5010 kPa, x2 = 0.1907	–	682.92
5010 kPa, x2 = 0.3001	696.69	684.29
5010 kPa, x2 = 0.4326	–	687.63
5010 kPa, x2 = 0.6863	716.84	–
5020 kPa, x2 = 0.1391	693.45	–
5020 kPa, x2 = 0.1907	694.27	–
5020 kPa, x2 = 0.6863	–	703.25
5020 kPa, x2 = 0.8711	738.33	–
6000 kPa, x2 = 0.6863	–	704.42
6010 kPa, x2 = 0.1391	–	683.79
6010 kPa, x2 = 0.1907	695.3	684.03
6010 kPa, x2 = 0.4326	701.9	688.8
6010 kPa, x2 = 0.6863	717.93	–
6010 kPa, x2 = 0.8711	739.41	–
6020 kPa, x2 = 0.1391	694.49	–
6020 kPa, x2 = 0.3001	697.74	685.42
6020 kPa, x2 = 0.8711	–	726.78
7000 kPa, x2 = 0.4326	702.99	–
7000 kPa, x2 = 0.8711	740.46	–
7010 kPa, x2 = 0.1391	695.53	–
7010 kPa, x2 = 0.1907	696.35	–
7010 kPa, x2 = 0.3001	698.82	686.6
7010 kPa, x2 = 0.4326	–	690
7010 kPa, x2 = 0.6863	719.02	–
7020 kPa, x2 = 0.1391	–	684.92
7020 kPa, x2 = 0.1907	–	685.14
7020 kPa, x2 = 0.6863	–	705.63
7020 kPa, x2 = 0.8711	–	727.93
8000 kPa, x2 = 0.1907	697.42	–
8000 kPa, x2 = 0.3001	–	687.74
8000 kPa, x2 = 0.8711	741.52	–
8010 kPa, x2 = 0.1391	696.59	686.06
8010 kPa, x2 = 0.1907	–	686.32
8010 kPa, x2 = 0.4326	–	691.17
8010 kPa, x2 = 0.6863	720.12	706.82
8010 kPa, x2 = 0.8711	–	729.07
8020 kPa, x2 = 0.3001	699.88	–
8020 kPa, x2 = 0.4326	704.06	–
9000 kPa, x2 = 0.1907	698.46	–
9000 kPa, x2 = 0.6863	–	708.03
9010 kPa, x2 = 0.1391	697.61	–
9010 kPa, x2 = 0.3001	700.95	–
9010 kPa, x2 = 0.4326	–	692.36
9010 kPa, x2 = 0.8711	742.57	730.22
9020 kPa, x2 = 0.1391	–	687.14
9020 kPa, x2 = 0.1907	–	687.44
9020 kPa, x2 = 0.3001	–	688.92
9020 kPa, x2 = 0.4326	705.14	–
9020 kPa, x2 = 0.6863	721.21	–
10000 kPa, x2 = 0.4326	706.23	693.57
10000 kPa, x2 = 0.6863	–	709.2
10010 kPa, x2 = 0.1391	698.62	688.25
10010 kPa, x2 = 0.3001	702.02	–
10010 kPa, x2 = 0.6863	722.27	–
10010 kPa, x2 = 0.8711	743.61	–
10020 kPa, x2 = 0.1907	699.47	–
11010 kPa, x2 = 0.1391	699.66	–
11010 kPa, x2 = 0.1907	700.5	–
11010 kPa, x2 = 0.4326	707.27	–
11010 kPa, x2 = 0.8711	744.65	–
11020 kPa, x2 = 0.3001	703.07	–
11020 kPa, x2 = 0.6863	723.34	–
12000 kPa, x2 = 0.4326	708.34	–
12000 kPa, x2 = 0.8711	745.65	–
12010 kPa, x2 = 0.1907	701.55	–
12010 kPa, x2 = 0.3001	704.1	–
12020 kPa, x2 = 0.1391	700.67	–
12020 kPa, x2 = 0.6863	724.37	–
13000 kPa, x2 = 0.1391	701.67	–
13000 kPa, x2 = 0.6863	725.42	–
13000 kPa, x2 = 0.8711	746.64	–
13010 kPa, x2 = 0.3001	705.15	–
13010 kPa, x2 = 0.4326	709.37	–
13020 kPa, x2 = 0.1907	702.55	–
14000 kPa, x2 = 0.3001	706.16	–
14000 kPa, x2 = 0.4326	710.39	–
14000 kPa, x2 = 0.6863	726.44	–
14000 kPa, x2 = 0.8711	747.65	–
14010 kPa, x2 = 0.1391	702.65	–
14020 kPa, x2 = 0.1907	703.54	–
15000 kPa, x2 = 0.1391	703.58	–
15000 kPa, x2 = 0.1907	704.5	–
15000 kPa, x2 = 0.6863	727.44	–
15010 kPa, x2 = 0.4326	711.38	–
15010 kPa, x2 = 0.8711	748.62	–
15020 kPa, x2 = 0.3001	707.12	–
16000 kPa, x2 = 0.6863	728.43	–
16000 kPa, x2 = 0.8711	749.58	–
16010 kPa, x2 = 0.1391	704.52	–
16010 kPa, x2 = 0.1907	705.46	–
16010 kPa, x2 = 0.3001	708.12	–
16020 kPa, x2 = 0.4326	712.37	–
17000 kPa, x2 = 0.1907	706.43	–
17000 kPa, x2 = 0.3001	709.07	–
17000 kPa, x2 = 0.4326	713.3	–
17010 kPa, x2 = 0.1391	705.45	–
17010 kPa, x2 = 0.6863	729.39	–
17010 kPa, x2 = 0.8711	750.52	–
18000 kPa, x2 = 0.6863	730.34	–
18010 kPa, x2 = 0.1907	707.33	–
18010 kPa, x2 = 0.3001	709.98	–
18010 kPa, x2 = 0.4326	714.25	–
18010 kPa, x2 = 0.8711	751.45	–
18020 kPa, x2 = 0.1391	706.37	–
19010 kPa, x2 = 0.1391	707.22	–
19010 kPa, x2 = 0.3001	710.9	–
19010 kPa, x2 = 0.4326	715.15	–
19010 kPa, x2 = 0.6863	731.24	–
19010 kPa, x2 = 0.8711	752.35	–
19020 kPa, x2 = 0.1907	708.2	–
20000 kPa, x2 = 0.1391	708.05	–
20000 kPa, x2 = 0.1907	709.04	–
20000 kPa, x2 = 0.8711	753.23	–
20010 kPa, x2 = 0.4326	716.08	–
20010 kPa, x2 = 0.6863	732.18	–
20020 kPa, x2 = 0.3001	711.75	–
